Literature values, collected in patent publication US20240226024A1 (Empros Pharma AB, priority 2021, published 2024).

Assays:
[1] = for Placebo adjusted reduction of body weight: oral administration for 6 months; for Additional weight loss relative to placebo at one year: on average
[2] = for Fraction of the dose absorbed: oral administration
[3] = not given; remark: listed apart in the source

C[C@H]1O[C@H](O[C@H]2[C@H](O)[C@@H](O)[C@@H](O[C@H]3[C@H](O)[C@@H](O)C(O)O[C@@H]3CO)O[C@@H]2CO)[C@H](O)[C@@H](O)[C@@H]1N[C@H]1C=C(CO)[C@@H](O)[C@H](O)[C@H]1O (stereo partly drawn) [acarbose, O-4,6-Dideoxy-4-[[(1S,4R,5S,6S)-4,5,6-trihydroxy-3-(hydroxymethyl)cyclohex-2-enyl]amino]-α-D-glucopyranosyl-(1→4)-O-α-D-gluco-pyranosyl-(1→4)-D-glucopyranose]
Placebo adjusted reduction of body weight [1]: approx. 0.5%

C[C@H]1CNCCc2ccc(Cl)cc21 [lorcaserin]
Decrease of body weight more than placebo ([1]; human, in vivo): about 3.2 kg
Decrease of body weight more than placebo, % of initial body weight ([1]; human, in vivo): about 3.2%
Additional weight loss relative to placebo at one year [1]: ~3%

OCCN1C[C@H](O)[C@@H](O)[C@H](O)[C@H]1CO [Miglitol, miglitol]
Fraction of the dose absorbed [2]: 100%

OCC(CO)N[C@H]1C[C@](O)(CO)[C@@H](O)[C@H](O)[C@H]1O [voglibose]
Fraction of the dose absorbed [2]: only negligibly absorbed

CCCCCCCCCCC[C@@H](C[C@@H]1OC(=O)[C@H]1CCCCCC)OC(=O)[C@H](CC(C)C)NC=O [orlistat, (S)-((S)-1-((2S,3S)-3-Hexyl-4-oxooxetan-2-yl)tridecan-2-yl) 2-formamido-4-methylpentanoate]
Participants who reported faecal incontinence, similar 6-month trial (6-month trial): 5%
Patients who complain about GI side-effects in clinical trials (diarrhea, oily spotting and fecal urgency): ≥ 25%
Participants who reported faecal incontinence, trials of longer duration (trials of longer duration): approximately 18%
Relative weight loss, best case scenario ([1]; conventional dosage form, placebo 6%): 10%
Approximate relative weight loss, conventional dosage form ([1]; conventional dosage forms): 2-3%
Additional weight loss relative to placebo at one year [1]: ~3%
Placebo adjusted reduction of body weight [1]: 2-3%
Solubility in water (in words) [3]: practically insoluble in water
Water solubility [3]: less than 0.001 g/ml
log P [3]: 8.5
Fraction of the dose absorbed [2]: < 3%
Plasma exposure ([2]; oral, conventional dosage form): < 5 ng/mL
